Experiment [1] in a line: cells. It is filed as functional, cell-based, ES2. The following applies: Homo sapiens, ES-2, 48 h.
Description: Cytotoxicity against human ES2 cells assessed as inhibition of cell proliferation after 48 hrs by MTT assay
The test system of a further experiment is HeLa. Put plainly: cells. It is filed as functional, cell-based. To be noted: Homo sapiens, 48 h.
Another experiment relates to PC-3. Put plainly: cells. The class given is functional, cell-based. The following applies: Homo sapiens, PC-3, 48 h.
The target in the next experiment is T1, Histone deacetylase 8 (Homo sapiens, UniProt Q9BY41).
T1 sequence (Q9BY41 whole entry): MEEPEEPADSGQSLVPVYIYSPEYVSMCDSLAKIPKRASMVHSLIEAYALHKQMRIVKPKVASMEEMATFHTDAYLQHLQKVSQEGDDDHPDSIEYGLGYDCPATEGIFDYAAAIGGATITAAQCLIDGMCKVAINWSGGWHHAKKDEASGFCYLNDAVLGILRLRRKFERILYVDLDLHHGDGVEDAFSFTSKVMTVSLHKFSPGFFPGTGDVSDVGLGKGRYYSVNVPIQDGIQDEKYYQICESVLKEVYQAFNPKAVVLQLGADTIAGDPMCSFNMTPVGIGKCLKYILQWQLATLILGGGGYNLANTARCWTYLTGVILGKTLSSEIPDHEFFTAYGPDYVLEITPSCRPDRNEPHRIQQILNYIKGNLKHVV
Put plainly: Inhibition of recombinant full length human HDAC8 expressed in Baculovirus infected insect Sf9 cells preincubated for 30 mins followed by substrate addition measured after 15 to 45 mins by luminescence assay.

The target in experiment [2] is T2, Histone deacetylase (HDAC1 and HDAC2) (Homo sapiens, UniProt Q13547+Q92769). Briefly: Inhibition of HDAC1/HDAC2 isolated from human HeLa cells incubated for 30 mins by Color de Lys assay. It is filed as cell-based.
The subject of a further experiment is U-937. Put plainly: cells. The class given is functional, cell-based. The following applies: Homo sapiens, U-937, 48 h.
The next experiment has as its system A549. Briefly: cells. The following applies: Homo sapiens, A549, 48 h. The class given is functional, cell-based.
In the next experiment the test system is MCF7. Put plainly: cells. It is filed as functional, cell-based. The following applies: Homo sapiens, MCF7, 48 h.
A short description of experiment [3]: cells. The class given is functional, cell-based. The following applies: Homo sapiens, KG-1, 48 h.
Description: Cytotoxicity against human KG1 cells assessed as inhibition of cell proliferation after 48 hrs by MTT assay
Experiment [4] deals with T2, Histone deacetylase (HDAC1 and HDAC2). To be noted: HeLa, at 5 µM.
Description: Inhibition of HDAC1/HDAC2 isolated from human HeLa cells at 5 umol/L incubated for 30 mins by Color de Lys assay
Another experiment concerns the target Histone deacetylase 1 (Homo sapiens, UniProt Q13547). Put plainly: Inhibition of recombinant full length human HDAC1 (1 to 482 amino acids) expressed in Baculovirus infected insect Sf9 cells incubated for 30 mins measured by fluorescence assay.
The next experiment concerns MDA-MB-231. Put plainly: cells. The class given is functional, cell-based. To be noted: Homo sapiens, MDA-MB-231, 48 h.
For experiment [5], the target named is T3, Protein deacetylase HDAC6 (Homo sapiens, UniProt Q9UBN7).
T3 sequence (Q9UBN7 whole entry): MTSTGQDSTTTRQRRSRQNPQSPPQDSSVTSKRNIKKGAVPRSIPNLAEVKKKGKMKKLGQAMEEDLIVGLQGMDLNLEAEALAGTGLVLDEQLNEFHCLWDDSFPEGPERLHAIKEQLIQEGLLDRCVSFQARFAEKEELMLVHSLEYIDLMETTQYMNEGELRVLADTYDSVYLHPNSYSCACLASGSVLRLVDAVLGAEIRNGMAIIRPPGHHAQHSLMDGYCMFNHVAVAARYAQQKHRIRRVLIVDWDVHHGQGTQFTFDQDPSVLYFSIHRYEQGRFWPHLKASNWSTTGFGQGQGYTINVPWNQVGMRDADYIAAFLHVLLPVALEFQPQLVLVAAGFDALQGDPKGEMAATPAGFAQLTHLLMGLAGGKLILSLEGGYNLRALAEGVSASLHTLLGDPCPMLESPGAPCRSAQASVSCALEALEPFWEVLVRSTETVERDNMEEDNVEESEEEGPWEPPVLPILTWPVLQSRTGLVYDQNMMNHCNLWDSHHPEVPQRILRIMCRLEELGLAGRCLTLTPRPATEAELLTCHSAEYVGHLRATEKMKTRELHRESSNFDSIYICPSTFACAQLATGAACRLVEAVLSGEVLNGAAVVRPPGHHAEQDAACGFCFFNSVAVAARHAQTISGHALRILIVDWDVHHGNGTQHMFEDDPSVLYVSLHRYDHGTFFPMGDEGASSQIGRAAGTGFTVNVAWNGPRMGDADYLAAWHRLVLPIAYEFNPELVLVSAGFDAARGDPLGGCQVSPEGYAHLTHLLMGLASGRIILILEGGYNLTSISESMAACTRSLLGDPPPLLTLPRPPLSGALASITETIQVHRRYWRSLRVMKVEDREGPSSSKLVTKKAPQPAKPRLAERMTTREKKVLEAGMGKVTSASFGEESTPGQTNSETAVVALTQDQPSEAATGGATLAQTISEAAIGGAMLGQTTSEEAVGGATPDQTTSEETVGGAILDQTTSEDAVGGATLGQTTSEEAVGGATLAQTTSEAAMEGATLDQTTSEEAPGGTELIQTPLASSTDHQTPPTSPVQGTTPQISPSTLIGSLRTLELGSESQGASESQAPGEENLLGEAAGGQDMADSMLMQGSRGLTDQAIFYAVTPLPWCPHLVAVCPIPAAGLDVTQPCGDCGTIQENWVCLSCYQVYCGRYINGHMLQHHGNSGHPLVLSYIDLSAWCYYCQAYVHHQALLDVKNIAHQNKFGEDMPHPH
Briefly: Inhibition of recombinant full length human HDAC6 expressed in Baculovirus infected insect Sf9 cells incubated for 30 mins measured by fluorescence assay.

A value given as a limit tells only on which side of the number the result lay.

The values below come from ChEMBL document CHEMBL3621197, “Design, synthesis, and preliminary bioactivity studies of substituted purine hydroxamic acid derivatives as novel histone deacetylase (HDAC) inhibitors” (Medchemcomm, 2014).

Chain of Histone deacetylase 1 (Q13547 whole entry, the tested form may be a part): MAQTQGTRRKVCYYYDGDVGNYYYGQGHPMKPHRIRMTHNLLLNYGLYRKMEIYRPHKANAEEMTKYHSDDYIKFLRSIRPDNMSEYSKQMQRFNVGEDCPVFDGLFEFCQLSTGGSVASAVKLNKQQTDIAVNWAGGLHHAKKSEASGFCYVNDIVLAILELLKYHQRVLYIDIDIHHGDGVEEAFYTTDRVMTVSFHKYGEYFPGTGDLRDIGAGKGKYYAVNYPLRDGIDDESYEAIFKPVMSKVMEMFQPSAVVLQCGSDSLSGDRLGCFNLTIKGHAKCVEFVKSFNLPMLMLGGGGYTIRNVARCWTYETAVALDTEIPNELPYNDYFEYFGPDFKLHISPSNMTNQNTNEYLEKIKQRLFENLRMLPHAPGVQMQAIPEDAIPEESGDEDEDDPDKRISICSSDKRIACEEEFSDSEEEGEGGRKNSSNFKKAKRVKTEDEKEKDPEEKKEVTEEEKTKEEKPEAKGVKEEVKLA
T2 sequence (Q13547 whole entry, looked up): as the sequence (Q13547 whole entry, the tested form may be a part) above
T2 sequence (Q92769 whole entry, looked up): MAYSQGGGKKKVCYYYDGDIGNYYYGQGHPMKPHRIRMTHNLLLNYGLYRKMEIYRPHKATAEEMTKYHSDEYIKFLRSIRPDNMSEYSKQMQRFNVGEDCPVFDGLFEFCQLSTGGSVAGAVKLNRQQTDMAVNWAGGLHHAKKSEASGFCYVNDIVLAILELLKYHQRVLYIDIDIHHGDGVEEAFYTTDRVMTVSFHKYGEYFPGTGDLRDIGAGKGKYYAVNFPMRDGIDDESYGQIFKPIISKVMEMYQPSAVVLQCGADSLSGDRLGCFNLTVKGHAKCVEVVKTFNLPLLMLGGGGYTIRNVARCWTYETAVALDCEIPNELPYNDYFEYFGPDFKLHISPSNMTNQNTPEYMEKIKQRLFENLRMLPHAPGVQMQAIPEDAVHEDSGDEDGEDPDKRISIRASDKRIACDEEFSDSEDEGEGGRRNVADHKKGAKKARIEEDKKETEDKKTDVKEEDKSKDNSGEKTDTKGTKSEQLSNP
Description for A549: Cytotoxicity against human A549 cells assessed as inhibition of cell proliferation after 48 hrs by MTT assay
Description for HeLa: Cytotoxicity against human HeLa cells assessed as inhibition of cell proliferation after 48 hrs by MTT assay
Description for MCF7: Cytotoxicity against human MCF7 cells assessed as inhibition of cell proliferation after 48 hrs by MTT assay
Description for MDA-MB-231: Cytotoxicity against human MDA-MB-231 cells assessed as inhibition of cell proliferation after 48 hrs by MTT assay
Description for PC-3: Cytotoxicity against human PC3 cells assessed as inhibition of cell proliferation after 48 hrs by MTT assay
Description for U-937: Cytotoxicity against human U937 cells assessed as inhibition of cell proliferation after 48 hrs by MTT assay

As for `O=C(CCCCCNC(=O)Cn1cnc2c(N3CCOCC3)nc(Nc3ccccc3)nc21)NO`, the IC50 (as a rule, the concentration that inhibits the measured activity by half) came to 28 µM in “cells [1]”; 18.2 µM in the experiment with HeLa; 6.44 µM in the experiment on PC-3; 0.15 µM on Histone deacetylase 8; 0.075 µM in [2]; 6.5 µM in the experiment on U-937. In addition, the IC50 is 46.1 µM with A549; 18.6 µM in the experiment on MCF7; 5.37 µM in the experiment “cells [3]”; 0.035 µM at Histone deacetylase 1; 1.56 µM in the experiment on MDA-MB-231; 0.0026 µM in experiment [5]. Besides, the inhibition (in general, the drop in the measured response relative to a control, in per cent) in experiment [4] was 98%.

In the case of `O=C(CCCCCCNC(=O)Cn1cnc2c(Nc3ccccc3)nc(Nc3ccccc3)nc21)NO`, the IC50 in “cells [1]” was found to be 8.95 µM; in the experiment on HeLa, 8.76 µM; in the experiment with PC-3, 4.26 µM; on Histone deacetylase 8 it was 0.32 µM; in experiment [2] it was 0.51 µM; in the experiment with U-937, 3.91 µM. Moreover, the IC50 in the experiment on A549 worked out at 10.1 µM; in the experiment with MCF7 it was 9.04 µM; in the experiment “cells [3]” it was 2.88 µM; on Histone deacetylase 1 it was 0.063 µM; in the experiment with MDA-MB-231, 1.55 µM; in experiment [5], 0.0018 µM. In addition, the inhibition in experiment [4] was 95%.

On to `O=C(CNC(=O)Cn1cnc2c(NCc3ccccc3)ncnc21)NO`, for which the inhibition in experiment [4] amounted to 3%.

On to `CNc1ncnc2c1ncn2CC(=O)NCCCC(=O)NO`, for which, in experiment [4], the inhibition is 6%.

For `Nc1nc(N2CCOCC2)c2ncn(CC(=O)NCCC(=O)NO)c2n1`, the inhibition in experiment [4] was found to be 20%.

On to `O=C(CCCCCNC(=O)Cn1cnc2c(Nc3ccccc3)ncnc21)NO`, for which the IC50 in experiment [2] was 2.09 µM; in the experiment on MCF7 it was above 50 µM; in “cells [3]”, above 50 µM; in the experiment with MDA-MB-231, 22.3 µM. In addition, the inhibition in experiment [4] came out at 72%.

In [2], `O=C(CCCNC(=O)Cn1cnc2c(N3CCOCC3)nc(Nc3ccccc3)nc21)NO` returned an IC50 above 5 µM. Further, the inhibition in experiment [4] came out at 69%.

For the compound `O=C(CCNC(=O)Cn1cnc2c(NCc3ccccc3)ncnc21)NO`, the inhibition in [4] came to 13%.

With `Nc1nc(N2CCOCC2)c2ncn(CC(=O)NCCCC(=O)NO)c2n1`, the inhibition in [4] was -1%.

As for `CNc1ncnc2c1ncn2CC(=O)NCC(=O)NO`, the inhibition in experiment [4] is 3%.

For `O=C(CCCCCCNC(=O)Cn1cnc2c(Nc3ccccc3)ncnc21)NO`, the IC50 is 2.94 µM in experiment [2], above 50 µM in the experiment with MCF7, above 50 µM in “cells [3]” and 8.91 µM with MDA-MB-231. The inhibition in experiment [4] turned out to be 49%.

For `O=C(Cc1ccc(NC(=O)Cn2cnc3c(N4CCOCC4)ncnc32)cc1)NO`, the inhibition in experiment [4] worked out at 25%.

Consider `O=C(CCCCCNC(=O)Cn1cnc2c(NCc3ccccc3)ncnc21)NO`, for which the IC50 in experiment [2] is 2.05 µM; in the experiment with MCF7, above 50 µM; in “cells [3]”, above 50 µM; with MDA-MB-231 it was 34.2 µM. In addition, in [4], the inhibition was 70%.

`O=C(CCCNC(=O)Cn1cnc2c(N3CCOCC3)ncnc21)NO`: the inhibition in experiment [4] came to 15%.

For the compound `O=C(CCCNC(=O)Cn1cnc2c(NCc3ccccc3)ncnc21)NO`, the inhibition in experiment [4] worked out at 11%.

On to `Nc1nc(N2CCOCC2)c2ncn(CC(=O)NCCCCCC(=O)NO)c2n1`, for which the IC50 is 4.53 µM in experiment [2], above 50 µM with MCF7 and 41.3 µM in the experiment with MDA-MB-231. Moreover, the inhibition in [4] is 53%.

Regarding `O=C(CCNC(=O)Cn1cnc2c(N3CCOCC3)nc(Nc3ccccc3)nc21)NO`, the IC50 in [2] is above 5 µM. In experiment [4], the inhibition turned out to be 56%.

As to `CNc1ncnc2c1ncn2CC(=O)NCCC(=O)NO`, the inhibition in experiment [4] stood at 10%.

For `O=C(CCCCNC(=O)Cn1cnc2c(Nc3ccccc3)ncnc21)NO`, the IC50 in experiment [2] was 2.51 µM; with MCF7, above 50 µM; in “cells [3]”, above 50 µM; in the experiment on MDA-MB-231, above 50 µM. For the same compound, the inhibition in experiment [4] came to 59%.

For `O=C(CCCCNC(=O)Cn1cnc2c(Nc3ccccc3)nc(Nc3ccccc3)nc21)NO`, the IC50 in [2] is 0.59 µM; in the experiment on MCF7, above 50 µM; in the experiment “cells [3]” it was 34.7 µM; in the experiment with MDA-MB-231, 11.1 µM. In addition, in [4], the inhibition was 87%.

Turning to `O=C(CCCCCNC(=O)Cn1cnc2c(N3CCOCC3)ncnc21)NO`, the IC50 in experiment [2] is above 5 µM. Also, the inhibition in [4] was 49%.

As to `Nc1nc(N2CCOCC2)c2ncn(CC(=O)Nc3ccc(CC(=O)NO)cc3)c2n1`, in [4], the inhibition came to 0%.

As to `O=C(CCNC(=O)Cn1cnc2c(N3CCOCC3)ncnc21)NO`, in experiment [4], the inhibition was 3%.

Turning to `O=C(CCCCCNC(=O)Cn1cnc2c(Nc3ccccc3)nc(Nc3ccccc3)nc21)NO`, the IC50 in the experiment “cells [1]” worked out at 13.4 µM; in the experiment on HeLa, 9.08 µM; in the experiment with PC-3, 2.14 µM; at Histone deacetylase 8, 0.2 µM; in experiment [2], 0.3 µM; with U-937, 4.07 µM. Also, the IC50 with A549 came to 18 µM; in the experiment on MCF7, 9.58 µM; in “cells [3]”, 3.8 µM; at Histone deacetylase 1, 0.028 µM; with MDA-MB-231, 1.61 µM; in experiment [5], 0.0038 µM. Also, the inhibition in experiment [4] worked out at 80%.
